Measurements reported in patent US10086039B2, “Lamin A, an activator of longevity/anti-aging SIRT1 protein” (THE UNIVERSITY OF HONG KONG, priority 2012, dated 2018).

Test system: NM-associated SIRT1
Assay: NM association of SIRT1 in BMSCs (subcellular fractionation, Western blotting)
Assay type: cell-based, mouse
Conditions: wild-type and Zmpste24−/− BMSCs, different concentrations, compared to untreated controls
Procedure: Cells were fractionated as described (Mendez and Stillman, 2000). Briefly, the cells were suspended in 100 μl ice-cold buffer A (10 mM HEPES, pH 7.9, 10 mM KCl, 1.5 mM MgCl2, 0.34 M sucrose, 10% glycerol, 1 mM DTT, protease inhibitors). After the addition of 0.1% Triton X-100, the cell suspension was mixed gently, incubated on ice for 5 min and centrifuged at 1300×g at 4° C. for 4 min. The supernatant (S1) was transferred to a new tube and clarified by high-speed centrifugation (12000×g, 10 min, 4° C.). The remaining nuclei pellet (P1) was washed once with 100 μl buffer A and then resuspended in 100 μl buffer A supplemented with 1 mM CaCl2 and 2 units of micrococcal nuclease, and incubated at 37° C. for 15 min. The reaction was stopped by adding 1 mM EGTA and the suspension was then centrifuged at 1300×g at 4° C. for 4 min. The resultant pellet was resuspended in 100 μl of buffer B (3 mM EDTA, 0.2 mM EGTA, 1 mM DTT) and centrifuged at 1700×g at 4° C. for 4 min. […]
Western blotting was performed as described previously (Liu et al., 2005). Relative band intensity was measured by IMAGE J® and normalized to corresponding wild-type or untreated controls as indicated. […]

SMILES: Oc1ccc(C=Cc2cc(O)cc(O)c2)cc1 [resveratrol]
- NM-associated SIRT1: increased
